Assay results: PMC10471714, “G6PDi-1 is a Potent Inhibitor of G6PDH and of Pentose Phosphate pathway-dependent Metabolic Processes in Cultured Primary Astrocytes” (Neurochemical Research, 2023)

Columns and labels:
[1] = target: T1, G6PDH (glucose-6-phosphate dehydrogenase) (Rattus norvegicus, UniProt P05370); assay: NADPH absorbance at […] nm in astrocyte lysate; format: biochemical; conditions: 3.3 mM G6P, 0.2 mM NADP+, 6.3 mM MgCl2, 5 mM maleimide, pH 7.5, room temperature; read-out: half-maximal inhibition
T1 construct: gene G6pdx; native cytosolic enzyme in soluble lysate supernatant of primary astrocyte-rich cultures; not purified

[2] = target: T2, 6PGDH (6-phosphogluconate dehydrogenase) (Rattus norvegicus, UniProt P85968); assay: NADPH absorbance at […] nm in astrocyte lysate; format: biochemical
T2 construct: gene Pgd; native cytosolic enzyme in soluble lysate supernatant of primary astrocyte-rich cultures; not purified
T2 sequence (P85968 2-483): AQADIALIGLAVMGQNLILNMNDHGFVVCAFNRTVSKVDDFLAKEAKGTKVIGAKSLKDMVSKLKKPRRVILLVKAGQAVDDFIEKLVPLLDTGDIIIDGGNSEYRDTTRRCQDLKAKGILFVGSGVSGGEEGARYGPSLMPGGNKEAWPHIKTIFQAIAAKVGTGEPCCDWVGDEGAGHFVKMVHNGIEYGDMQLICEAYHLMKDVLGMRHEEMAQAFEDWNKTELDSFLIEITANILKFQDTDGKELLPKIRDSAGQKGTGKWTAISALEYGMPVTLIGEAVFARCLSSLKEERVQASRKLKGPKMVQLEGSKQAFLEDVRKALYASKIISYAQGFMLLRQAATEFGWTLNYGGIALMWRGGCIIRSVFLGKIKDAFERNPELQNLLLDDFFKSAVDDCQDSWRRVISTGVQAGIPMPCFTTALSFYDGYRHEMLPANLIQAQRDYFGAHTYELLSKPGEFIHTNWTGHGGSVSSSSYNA

T1 sequence (P05370 2-515): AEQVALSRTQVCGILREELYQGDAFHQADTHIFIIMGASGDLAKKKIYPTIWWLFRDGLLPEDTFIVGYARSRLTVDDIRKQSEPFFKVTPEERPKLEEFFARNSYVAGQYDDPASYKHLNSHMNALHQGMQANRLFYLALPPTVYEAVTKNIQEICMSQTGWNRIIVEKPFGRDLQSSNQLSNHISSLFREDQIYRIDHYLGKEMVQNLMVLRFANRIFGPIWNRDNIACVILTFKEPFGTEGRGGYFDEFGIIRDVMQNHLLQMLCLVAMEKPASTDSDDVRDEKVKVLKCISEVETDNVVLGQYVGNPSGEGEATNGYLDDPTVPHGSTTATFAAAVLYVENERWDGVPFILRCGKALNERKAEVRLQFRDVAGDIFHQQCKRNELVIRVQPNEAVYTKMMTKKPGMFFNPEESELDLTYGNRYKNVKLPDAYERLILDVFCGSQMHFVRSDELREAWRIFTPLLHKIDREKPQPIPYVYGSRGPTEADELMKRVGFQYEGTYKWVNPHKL

| IC50 [1] | inhibition at 100 µM [2] | SMILES |
| --- | --- | --- |
| 9.2 ± 3.5 µM |  | C[C@]12CC[C@H](O)CC1=CC[C@@H]1[C@@H]2CC[C@]2(C)C(=O)CC[C@@H]12 [DHEA] |
|  | 15% | N#Cc1cc(Nc2ncc3c(n2)CCCCC3=O)cs1 [G6PDi-1] |
